smiles,measurement,setting,value
COC(=O)[C@@H](N)CS.Cl,solubility (mole fraction),"in 1,4-dioxane, 288.15 K",0.00083
same,solubility (mole fraction),"in 1,4-dioxane, 293.15 K",0.001
same,solubility (mole fraction),"in 1,4-dioxane, 298.15 K",0.0013
same,solubility (mole fraction),"in 1,4-dioxane, 303.15 K",0.00147
same,solubility (mole fraction),"in 1,4-dioxane, 308.15 K",0.00184
same,solubility (mole fraction),"in 1,4-dioxane, 313.15 K",0.00211
same,solubility (mole fraction),"in 1,4-dioxane, 318.15 K",0.00232
same,solubility (mole fraction),"in 1,4-dioxane, 323.15 K",0.00269
same,solubility (mole fraction),"in 1,4-dioxane, 328.15 K",0.00305
same,solubility (mole fraction),"in 1,4-dioxane, 333.15 K",0.00349
same,solubility (mole fraction),"in 2-butanone, 283.15 K",0.00065
same,solubility (mole fraction),"in 2-butanone, 288.15 K",0.00084
same,solubility (mole fraction),"in 2-butanone, 293.15 K",0.00108
same,solubility (mole fraction),"in 2-butanone, 298.15 K",0.00132
same,solubility (mole fraction),"in 2-butanone, 303.15 K",0.00164
same,solubility (mole fraction),"in 2-butanone, 308.15 K",0.00192
same,solubility (mole fraction),"in 2-butanone, 313.15 K",0.00225
same,solubility (mole fraction),"in 2-butanone, 318.15 K",0.0025
same,solubility (mole fraction),"in 2-butanone, 323.15 K",0.00333
same,solubility (mole fraction),"in 2-butanone, 328.15 K",0.00418
same,solubility (mole fraction),"in 2-butanone, 333.15 K",0.00573
same,solubility (mole fraction),"in acetone, 283.15 K",0.00062
same,solubility (mole fraction),"in acetone, 288.15 K",0.00073
same,solubility (mole fraction),"in acetone, 293.15 K",0.00082
same,solubility (mole fraction),"in acetone, 298.15 K",0.00087
same,solubility (mole fraction),"in acetone, 303.15 K",0.00093
same,solubility (mole fraction),"in acetone, 308.15 K",0.00101
same,solubility (mole fraction),"in acetone, 313.15 K",0.00111
same,solubility (mole fraction),"in acetone, 318.15 K",0.00124
same,solubility (mole fraction),"in acetone, 323.15 K",0.00152
same,solubility (mole fraction),"in acetonitrile, 283.15 K",0.00021
same,solubility (mole fraction),"in acetonitrile, 288.15 K",0.00029
same,solubility (mole fraction),"in acetonitrile, 293.15 K",0.00032
same,solubility (mole fraction),"in acetonitrile, 298.15 K",0.0004
same,solubility (mole fraction),"in acetonitrile, 303.15 K",0.00043
same,solubility (mole fraction),"in acetonitrile, 308.15 K",0.0005
same,solubility (mole fraction),"in acetonitrile, 313.15 K",0.00062
same,solubility (mole fraction),"in acetonitrile, 318.15 K",0.00091
same,solubility (mole fraction),"in acetonitrile, 323.15 K",0.00098
same,solubility (mole fraction),"in acetonitrile, 328.15 K",0.00104
same,solubility (mole fraction),"in acetonitrile, 333.15 K",0.00123
same,solubility (mole fraction),"in dichloromethane, 283.15 K",5e-05
same,solubility (mole fraction),"in dichloromethane, 288.15 K",7e-05
same,solubility (mole fraction),"in dichloromethane, 293.15 K",9e-05
same,solubility (mole fraction),"in dichloromethane, 298.15 K",0.00011
same,solubility (mole fraction),"in dichloromethane, 303.15 K",0.00013
same,solubility (mole fraction),"in ethanol, 283.15 K",0.0232
same,solubility (mole fraction),"in ethanol, 288.15 K",0.0257
same,solubility (mole fraction),"in ethanol, 293.15 K",0.029
same,solubility (mole fraction),"in ethanol, 298.15 K",0.0337
same,solubility (mole fraction),"in ethanol, 303.15 K",0.0428
same,solubility (mole fraction),"in ethanol, 308.15 K",0.0471
same,solubility (mole fraction),"in ethanol, 313.15 K",0.0536
same,solubility (mole fraction),"in ethanol, 318.15 K",0.0622
same,solubility (mole fraction),"in ethanol, 323.15 K",0.0722
same,solubility (mole fraction),"in ethanol, 328.15 K",0.0864
same,solubility (mole fraction),"in ethanol, 333.15 K",0.1
same,solubility (mole fraction),"in ethyl acetate, 283.15 K",7e-05
same,solubility (mole fraction),"in ethyl acetate, 288.15 K",0.0001
same,solubility (mole fraction),"in ethyl acetate, 293.15 K",0.00012
same,solubility (mole fraction),"in ethyl acetate, 298.15 K",0.00015
same,solubility (mole fraction),"in ethyl acetate, 303.15 K",0.00018
same,solubility (mole fraction),"in ethyl acetate, 308.15 K",0.00023
same,solubility (mole fraction),"in ethyl acetate, 313.15 K",0.00027
same,solubility (mole fraction),"in ethyl acetate, 318.15 K",0.0003
same,solubility (mole fraction),"in ethyl acetate, 323.15 K",0.00032
same,solubility (mole fraction),"in ethyl acetate, 328.15 K",0.00042
same,solubility (mole fraction),"in ethyl acetate, 333.15 K",0.00052
same,solubility (mole fraction),"in isobutanol, 283.15 K",0.00393
same,solubility (mole fraction),"in isobutanol, 288.15 K",0.00437
same,solubility (mole fraction),"in isobutanol, 293.15 K",0.00478
same,solubility (mole fraction),"in isobutanol, 298.15 K",0.00541
same,solubility (mole fraction),"in isobutanol, 303.15 K",0.00634
same,solubility (mole fraction),"in isobutanol, 308.15 K",0.00718
same,solubility (mole fraction),"in isobutanol, 313.15 K",0.0086
same,solubility (mole fraction),"in isobutanol, 318.15 K",0.00972
same,solubility (mole fraction),"in isobutanol, 323.15 K",0.0125
same,solubility (mole fraction),"in isobutanol, 328.15 K",0.0162
same,solubility (mole fraction),"in isobutanol, 333.15 K",0.0196
same,solubility (mole fraction),"in isopropanol, 283.15 K",0.0036
same,solubility (mole fraction),"in isopropanol, 288.15 K",0.00389
same,solubility (mole fraction),"in isopropanol, 293.15 K",0.00422
same,solubility (mole fraction),"in isopropanol, 298.15 K",0.00512
same,solubility (mole fraction),"in isopropanol, 303.15 K",0.00585
same,solubility (mole fraction),"in isopropanol, 308.15 K",0.00648
same,solubility (mole fraction),"in isopropanol, 313.15 K",0.00806
same,solubility (mole fraction),"in isopropanol, 318.15 K",0.0097
same,solubility (mole fraction),"in isopropanol, 323.15 K",0.0127
same,solubility (mole fraction),"in isopropanol, 328.15 K",0.0153
same,solubility (mole fraction),"in isopropanol, 333.15 K",0.0188
same,solubility (mole fraction),"in methanol, 283.15 K",0.0906
same,solubility (mole fraction),"in methanol, 288.15 K",0.0944
same,solubility (mole fraction),"in methanol, 293.15 K",0.106
same,solubility (mole fraction),"in methanol, 298.15 K",0.114
same,solubility (mole fraction),"in methanol, 303.15 K",0.127
same,solubility (mole fraction),"in methanol, 308.15 K",0.139
same,solubility (mole fraction),"in methanol, 313.15 K",0.155
same,solubility (mole fraction),"in methanol, 318.15 K",0.168
same,solubility (mole fraction),"in methanol, 323.15 K",0.187
same,solubility (mole fraction),"in methanol, 328.15 K",0.212
same,solubility (mole fraction),"in methanol, 333.15 K",0.257
same,solubility (mole fraction),"in n-butanol, 283.15 K",0.00537
same,solubility (mole fraction),"in n-butanol, 288.15 K",0.00599
same,solubility (mole fraction),"in n-butanol, 293.15 K",0.0067
same,solubility (mole fraction),"in n-butanol, 298.15 K",0.00847
same,solubility (mole fraction),"in n-butanol, 303.15 K",0.0106
same,solubility (mole fraction),"in n-butanol, 308.15 K",0.0124
same,solubility (mole fraction),"in n-butanol, 313.15 K",0.0136
same,solubility (mole fraction),"in n-butanol, 318.15 K",0.0164
same,solubility (mole fraction),"in n-butanol, 323.15 K",0.0198
same,solubility (mole fraction),"in n-butanol, 328.15 K",0.0238
same,solubility (mole fraction),"in n-butanol, 333.15 K",0.0306
same,solubility (mole fraction),"in n-pentanol, 283.15 K",0.0039
same,solubility (mole fraction),"in n-pentanol, 288.15 K",0.00462
same,solubility (mole fraction),"in n-pentanol, 293.15 K",0.0054
same,solubility (mole fraction),"in n-pentanol, 298.15 K",0.00662
same,solubility (mole fraction),"in n-pentanol, 303.15 K",0.00824
same,solubility (mole fraction),"in n-pentanol, 308.15 K",0.00924
same,solubility (mole fraction),"in n-pentanol, 313.15 K",0.0111
same,solubility (mole fraction),"in n-pentanol, 318.15 K",0.0125
same,solubility (mole fraction),"in n-pentanol, 323.15 K",0.0149
same,solubility (mole fraction),"in n-pentanol, 328.15 K",0.0187
same,solubility (mole fraction),"in n-pentanol, 333.15 K",0.0236
same,solubility (mole fraction),"in n-propanol, 283.15 K",0.00805
same,solubility (mole fraction),"in n-propanol, 288.15 K",0.00883
same,solubility (mole fraction),"in n-propanol, 293.15 K",0.0106
same,solubility (mole fraction),"in n-propanol, 298.15 K",0.0124
same,solubility (mole fraction),"in n-propanol, 303.15 K",0.0145
same,solubility (mole fraction),"in n-propanol, 308.15 K",0.0161
same,solubility (mole fraction),"in n-propanol, 313.15 K",0.0193
same,solubility (mole fraction),"in n-propanol, 318.15 K",0.0219
same,solubility (mole fraction),"in n-propanol, 323.15 K",0.0272
same,solubility (mole fraction),"in n-propanol, 328.15 K",0.0306
same,solubility (mole fraction),"in n-propanol, 333.15 K",0.0384
same,solubility (mole fraction),"in sec-butanol, 283.15 K",0.00252
same,solubility (mole fraction),"in sec-butanol, 288.15 K",0.00265
same,solubility (mole fraction),"in sec-butanol, 293.15 K",0.00283
same,solubility (mole fraction),"in sec-butanol, 298.15 K",0.00372
same,solubility (mole fraction),"in sec-butanol, 303.15 K",0.00416
same,solubility (mole fraction),"in sec-butanol, 308.15 K",0.00455
same,solubility (mole fraction),"in sec-butanol, 313.15 K",0.00513
same,solubility (mole fraction),"in sec-butanol, 318.15 K",0.0063
same,solubility (mole fraction),"in sec-butanol, 323.15 K",0.0082
same,solubility (mole fraction),"in sec-butanol, 328.15 K",0.00958
same,solubility (mole fraction),"in sec-butanol, 333.15 K",0.0112

# — BigSolDB 2.1
